Measurements as given in ChEMBL document CHEMBL1201862, “PubChem BioAssay data set” (2004).
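Following 48 hours of exposure in 96-well plates, responses at five concentrations were used to interpolate endpoints linearly. GI50 = concentration required for 50% inhibition of growth.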 Active and inactive are the calls of the source. Cut-off read from the data, not from the text of the source: active = GI50 up to about 1.1 µM and inactive = higher.

Key:
Test in all cases: DTP human tumour cell line panel, 48 h
Malme-3M = tested on: Malme-3M
EKVX = tested on: EKVX
HCT-15 = tested on: HCT-15
OVCAR-5 = tested on: OVCAR-5
CCRF-CEM = tested on: CCRF-CEM
SNB-75 = tested on: SNB-75
ACHN = tested on: ACHN
SK-MEL-5 = tested on: SK-MEL-5
IGROV-1 = tested on: IGROV-1
U-251 = tested on: U-251
HL-60 = tested on: HL-60
SF-268 = tested on: SF-268
SK-MEL-28 = tested on: SK-MEL-28
HOP-18 = tested on: HOP-18
UACC-62 = tested on: UACC-62
RXF 393 = tested on: RXF 393
NCI-H522 = tested on: NCI-H522
UO-31 = tested on: UO-31
COLO 205 = tested on: COLO 205
TK-10 = tested on: TK-10
786-0 = tested on: 786-0
NCI-H226 = tested on: NCI-H226
RPMI-8226 = tested on: RPMI-8226
LXFL 529 = tested on: LXFL 529
SW-620 = tested on: SW-620
SF-295 = tested on: SF-295
M14 = tested on: M14
DMS-114 = tested on: DMS-114
HCT-116 = tested on: HCT-116
SR = tested on: SR
CAKI-1 = tested on: CAKI-1
HOP-62 = tested on: HOP-62
SK-OV-3 = tested on: SK-OV-3
KM-20L2 = tested on: KM-20L2
OVCAR-3 = tested on: OVCAR-3
K562 = tested on: K562
HCC 2998 = tested on: HCC 2998
DLD-1 = tested on: DLD-1
A549 = tested on: A549
NCI-H460 = tested on: NCI-H460
KM12 = tested on: KM12
SN12C = tested on: SN12C
DMS-273 = tested on: DMS-273
UACC-257 = tested on: UACC-257
M19-MEL = tested on: M19-MEL
NCI-H23 = tested on: NCI-H23
LOX IMVI = tested on: LOX IMVI
OVCAR-4 = tested on: OVCAR-4
SNB-19 = tested on: SNB-19
OVCAR-8 = tested on: OVCAR-8
MOLT-4 = tested on: MOLT-4
SK-MEL-2 = tested on: SK-MEL-2
HT-29 = tested on: HT-29
SNB-78 = tested on: SNB-78
HOP-92 = tested on: HOP-92
A498 = tested on: A498
SF-539 = tested on: SF-539

Compound: O=C1C(Cl)C(c2cccc([N+](=O)[O-])c2)N1n1cnc2ccccc2c1=O (configuration not stated)
- GI50 (Malme-3M): > 100 µM (inactive)
- GI50 (EKVX): > 100 µM (inactive)
- GI50 (HCT-15): > 100 µM
- GI50 (OVCAR-5): 58.5 µM (inactive)
- GI50 (CCRF-CEM): > 10 µM (inactive)
- GI50 (SNB-75): 65.8 µM (inactive)
- GI50 (ACHN): > 100 µM (inactive)
- GI50 (SK-MEL-5): > 100 µM (inactive)
- GI50 (IGROV-1): > 100 µM (inactive)
- GI50 (U-251): > 100 µM (inactive)
- GI50 (HL-60): 57 µM (inactive)
- GI50 (SF-268): > 100 µM (inactive)
- GI50 (SK-MEL-28): > 100 µM (inactive)
- GI50 (HOP-18): 11 µM (inactive)
- GI50 (UACC-62): > 100 µM (inactive)
- GI50 (RXF 393): > 100 µM (inactive)
- GI50 (NCI-H522): 46.3 µM (inactive)
- GI50 (UO-31): 14.7 µM (inactive)
- GI50 (COLO 205): > 100 µM (inactive)
- GI50 (TK-10): > 100 µM (inactive)
- GI50 (786-0): > 100 µM (inactive)
- GI50 (NCI-H226): > 100 µM (inactive)
- GI50 (RPMI-8226): 42.3 µM (inactive)
- GI50 (LXFL 529): 92.3 µM (inactive)
- GI50 (SW-620): > 100 µM (inactive)
- GI50 (SF-295): > 100 µM (inactive)
- GI50 (M14): > 100 µM (inactive)
- GI50 (DMS-114): 86.9 µM (inactive)
- GI50 (HCT-116): 37.8 µM (inactive)
- GI50 (SR): 19.1 µM (inactive)
- GI50 (CAKI-1): 91.2 µM (inactive)
- GI50 (HOP-62): > 100 µM (inactive)
- GI50 (SK-OV-3): > 100 µM (inactive)
- GI50 (KM-20L2): 85.7 µM (inactive)
- GI50 (OVCAR-3): 78.7 µM (inactive)
- GI50 (K562): 49.7 µM (inactive)
- GI50 (HCC 2998): > 100 µM (inactive)
- GI50 (DLD-1): > 100 µM (inactive)
- GI50 (A549): > 100 µM (inactive)
- GI50 (NCI-H460): 50.9 µM (inactive)
- GI50 (KM12): > 100 µM (inactive)
- GI50 (SN12C): > 100 µM (inactive)
- GI50 (DMS-273): > 100 µM (inactive)
- GI50 (UACC-257): 55.2 µM (inactive)
- GI50 (M19-MEL): > 100 µM (inactive)
- GI50 (NCI-H23): > 100 µM (inactive)
- GI50 (LOX IMVI): > 100 µM (inactive)
- GI50 (OVCAR-4): 54.6 µM (inactive)
- GI50 (SNB-19): > 100 µM (inactive)
- GI50 (OVCAR-8): > 100 µM (inactive)
- GI50 (MOLT-4): 35.1 µM (inactive)
- GI50 (SK-MEL-2): > 100 µM (inactive)
- GI50 (HT-29): > 100 µM (inactive)

Compound: Nc1ccn(CCO)c(=O)n1
- GI50 (Malme-3M): > 100 µM (inactive)
- GI50 (EKVX): > 100 µM (inactive)
- GI50 (HCT-15): > 100 µM
- GI50 (OVCAR-5): > 100 µM (inactive)
- GI50 (CCRF-CEM): > 100 µM (inactive)
- GI50 (SNB-75): > 100 µM (inactive)
- GI50 (ACHN): > 100 µM (inactive)
- GI50 (SNB-78): > 100 µM (inactive)
- GI50 (HOP-92): > 100 µM (inactive)
- GI50 (SK-MEL-5): > 100 µM (inactive)
- GI50 (IGROV-1): > 100 µM (inactive)
- GI50 (U-251): > 100 µM (inactive)
- GI50 (HL-60): > 100 µM (inactive)
- GI50 (SF-268): > 100 µM (inactive)
- GI50 (SK-MEL-28): > 100 µM (inactive)
- GI50 (HOP-18): > 100 µM (inactive)
- GI50 (UACC-62): > 100 µM (inactive)
- GI50 (RXF 393): > 100 µM (inactive)
- GI50 (NCI-H522): > 100 µM (inactive)
- GI50 (UO-31): > 100 µM (inactive)
- GI50 (A498): > 100 µM (inactive)
- GI50 (COLO 205): > 100 µM (inactive)
- GI50 (TK-10): > 100 µM (inactive)
- GI50 (786-0): > 100 µM (inactive)
- GI50 (NCI-H226): > 100 µM (inactive)
- GI50 (RPMI-8226): > 100 µM (inactive)
- GI50 (LXFL 529): > 100 µM (inactive)
- GI50 (SW-620): > 100 µM (inactive)
- GI50 (SF-295): > 100 µM (inactive)
- GI50 (M14): > 100 µM (inactive)
- GI50 (DMS-114): > 100 µM (inactive)
- GI50 (HCT-116): > 100 µM (inactive)
- GI50 (SR): > 100 µM (inactive)
- GI50 (CAKI-1): > 100 µM (inactive)
- GI50 (HOP-62): > 100 µM (inactive)
- GI50 (SK-OV-3): > 100 µM (inactive)
- GI50 (KM-20L2): > 100 µM (inactive)
- GI50 (OVCAR-3): > 100 µM (inactive)
- GI50 (K562): > 100 µM (inactive)
- GI50 (HCC 2998): > 100 µM (inactive)
- GI50 (DLD-1): > 100 µM (inactive)
- GI50 (A549): > 100 µM (inactive)
- GI50 (NCI-H460): > 100 µM (inactive)
- GI50 (KM12): > 100 µM (inactive)
- GI50 (SN12C): > 100 µM (inactive)
- GI50 (DMS-273): > 100 µM (inactive)
- GI50 (UACC-257): > 100 µM (inactive)
- GI50 (M19-MEL): > 100 µM (inactive)
- GI50 (SF-539): > 100 µM (inactive)
- GI50 (LOX IMVI): > 100 µM (inactive)
- GI50 (OVCAR-4): > 100 µM (inactive)
- GI50 (OVCAR-8): > 100 µM (inactive)
- GI50 (SK-MEL-2): > 100 µM (inactive)
- GI50 (HT-29): > 100 µM (inactive)
